One experiment concerns P388 cells. Briefly: P388 antiproliferative (MTT) assay. The class given is cell-based. The settings on record: Mus musculus, 48 hr exposure. As for the experimental part:
(§1) P388 cells are obtained from Dr. J. Mayo, National Cancer Institute, Bethesda, Md., and A549 cells are obtained from American Type Culture Collection, Rockville, Md. All cell lines are maintained in Roswell Park Memorial Institute (RPMI) medium 1640 supplemented with 10% horse serum. All cell lines are cultured in plastic tissue culture flasks and kept in an incubator at 37° C. in humidified air containing 5% CO2. Prior to testing, antibiotic-free stock cultures of each of the cell lines are subcultured to 10^6 cells/ml by dilution in fresh growth medium at 2 to 3 day intervals.
(§2) To assess the antiproliferative effects of agents against the P388 cell line, 200 μl cultures (96-well tissue culture plates, Nunc, Denmark) are established at 1×10^5 cells/ml in drug-free medium or medium containing the test agent at 10.0, 1.0, 0.10 and 0.010 μg/ml. Solvent for all dilutions ethanol. All experimental cultures are initiated in medium containing Gentamycin sulfate (50 μg/ml; Schering Corporation, Kenilworth, N.J.). After48 hr exposures, P388 cells are enumerated using 3-[4,5-Dimethylthiazol-2-yl]-2,5-diphenyltetrazolium bromide (MTT).
To quantitate the effects on cell proliferation and resulting IC50 values, 75 μl of warm growth media containing 5 mg/ml MTT is added to each well, cultures returned to the incubator, and left undisturbed for 90 minutes. […]

Another experiment concerns the target T1, calcineurin (Bos taurus, UniProt P48452).
T1 construct: Calcineurin was prepared from bovine brain; from tissue; host or cells: bovine brain
The experiment is described as follows: Calcineurin assay (p-nitrophenylphosphate phosphatase activity). It is filed as biochemical, bovine. Conditions: pH 7.5, 30° C., 60 min. As for the experimental part:
Calmodulin was prepared from bovine brain according to the method of Wallace et al. ([1983] Meth. Enzymol. 102:39-47). The calmodulin was either used directly or coupled to sepharose-4B to form the calmodulin-sepharoseaffinity column necessary for the isolation of calcineurin. Calcineurin was prepared from bovine brain by the method of Tallant et al. ([1983] Meth. Enzymol. 102:244-286), concentrated, aliquoted and stored at -80° C.
Calcineurin activity was assayed in 96-well microtiter plates in a final volume of 50 μl. Each well contained 50 mM Tris-HCl pH 7.5, 0.5 mM MnCl2, 0.05 mM CaCl2, 1 mM DTT, 50 mM p-nitrophenylphosphate (pNPP), 0.3 μg calcineurin, a five-fold excess of calmodulin, and either test samples or control compounds. Plates were incubated at 30° C. for 60 min. Liberated p-nitrophenol was determined by the change in absorbance at 405 nm.

The next experiment deals with A549 cells. Briefly: A549 antiproliferative (MTT) assay. Conditions: Homo sapiens, additional 48 hr exposure prior to MTT addition. It is filed as cell-based. The protocol: as §1, §2
[…] Results are expressed as percent inhibition compared to the negative (no drug) control. Positive drug controls are included to monitor drug sensitivity of each of the cell lines. […]

A further experiment addresses T2, CPP32 (Homo sapiens, UniProt P42574).
T2 construct: BASF, Worchester, Mass; (gift, not a purchase)
T2 sequence (P42574 29-175 limits assumed): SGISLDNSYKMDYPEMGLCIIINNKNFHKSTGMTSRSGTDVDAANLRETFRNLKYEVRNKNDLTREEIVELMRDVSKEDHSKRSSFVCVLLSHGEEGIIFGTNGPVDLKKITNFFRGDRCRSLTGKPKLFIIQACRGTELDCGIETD
T2 sequence (P42574 176-277 limits assumed): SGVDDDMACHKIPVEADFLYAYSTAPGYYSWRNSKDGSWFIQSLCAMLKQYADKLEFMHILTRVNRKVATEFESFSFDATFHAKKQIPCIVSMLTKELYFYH
Briefly: Caspase inhibition (CPP32, Ac-DEVD-pNA substrate). The class given is biochemical. Conditions: Ac-DEVD-pNA 25 μM, pH 7.5, 30 degrees C., 30 minutes. The protocol: Test samples were aliquoted into 96 well microtiter plates and allowed to air dry. The stock CPP32 enzyme (kindly supplied by BASF, Worchester, Mass.) was diluted by adding 10 μl of the enzyme to 17 ml of reaction buffer (50 mM Hepes pH 7.5; 10% glycerol; 5 mM Dithiothreitol; 0.5 mM EDTA). A volume of 180 μl of the diluted enzyme was added to wells containing the dried test samples, or to empty wells (control). The contents of the microtiter wells were mixed by shaking on a plate shaker. Plates were incubated at 30 degrees C. for 5 minutes. […] Controls for each plate consisted of an inhibitor control (50 nM DEVD-CHO final concentration); positive control (enzyme and substrate) and negative control (reaction buffer and substrate). The plates were covered with aluminum foil and mixed using a plate shaker for 5 minutes then incubated at 30 degrees C. for 30 minutes. Plates were read using on a plate reader with absorbance measured at 405 nm. Data was expressed as percent inhibition by comparing the absorbance values of test samples with those of the positive control (no sample).

Converted amounts (≈) assume the structure as drawn.

T1 sequence (P63099 2-170, other chains not shown): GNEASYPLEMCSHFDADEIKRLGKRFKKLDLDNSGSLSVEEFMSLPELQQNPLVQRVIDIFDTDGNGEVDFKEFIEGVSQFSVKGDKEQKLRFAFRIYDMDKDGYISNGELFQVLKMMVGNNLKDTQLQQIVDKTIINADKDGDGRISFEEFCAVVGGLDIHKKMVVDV

Consider `Cn1cc2c3c1C(=O)C1=C(C3=NCC2)C2(C=C(Br)C(=O)C(Br)=C2)CCN1` [discorhabdin P], for which the IC50 was 0.025 µg/mL in the experiment on P388 cells, 1150 nM at calcineurin, 0.41 µg/mL in the experiment with A549 cells and 0.37 µg/mL (≈ 0.775 µM) on CPP32. Further, at calcineurin (at 0.5 μg/ml), the inhibition at 0.5 µg/mL came out at 33%. Besides, the inhibition at 5 µg/mL on calcineurin (at 5 μg/ml) was determined as 64%.

The term IC50 denotes the midpoint of a concentration-inhibition curve. For orientation: inhibition means the change of the read-out against control, counted positive when it falls.

The values above are taken from patent US6057333A, “Discorhabdin compounds and methods of use” (Harbor Branch Oceanographic Institution, Inc., priority 1998, dated 2000).
